Laboratory results as given in patent publication US5541187A, “6-heterocycyclyl pyrazolo[3,4-d]pyrimidin-4-ones and compositions and method of use thereof” (Sterling Winthrop Inc., priority 1993, dated 1996).
Counter-ions that a name gives are not always drawn.

Tested on: cGMP-PDE I
Assay: cGMP-PDE I inhibitory activity (cyclic nucleotide hydrolysis, isolated PDE isozyme)
Type: biochemical, various animal species and man
Conditions: for IC50: values marked * are from two separate experimental runs
Experimental: Multiple isozymic forms of cyclic nucleotide phosphodiesterase (PDE) have been identified in mammalian cells. […] Elevation of intracellular cGMP in vascular smooth muscle triggers a cascade of events that leads to a reduction in muscle tone while elevations in renal tubule cell cGMP stimulates natriuresis and diuresis. Vascular smooth muscle and renal cells contain a phosphodiesterase isozyme that has a low Km (1 μM) for the hydrolysis of cGMP. This isozyme has been referred to as the cGMP-PDE or cGMP-PDE I since it elutes from an anion-exchange sepharose resin in the first peak of PDE activity at a sodium acetate concentration between 150-200 mM. Thus inhibition of the cGMP-PDE isozyme is a viable subcellular mechanism by which increases in cGMP can produce a reduction in total peripheral resistance and a stimulation of natriuresis and diuresis. The development of cGMP-PDE inhibitors represents an approach for the discovery of agents useful for treating heart failure and hypertension. For example, compounds having high inhibitory potency for the cGMP-PDE are expected to lower blood pressure and induce natriuresis and diuresis.
The cGMP-PDE and other PDE isozymes were isolated from cardiovascular tissues (heart and aorta) of various animal species and man by anion-exchange and affinity chromatography as described by Silver et al., Sec. Messeng. Phos. 13:13-25, 1991; PDE activity, in the presence and absence of test compounds was determined essentially as described by Thompson et al., Adv. Cyclic Nucleotide Res. 10:69-92. To determine the potency and selectivity of compounds as PDE inhibitors, compounds are screened for their effect on cyclic nucleotide hydrolysis at 10 μM. If ≥50% inhibition of PDE activity is observed, an IC50 value (concentration of compound causing 50% reduction in PDE activity) and corresponding 95% confidence intervals are generated. The IC50 values are calculated from concentration-response curves as described by Tallarida and Murray, Manual of Pharmacologic Calculations with Computer Programs, Procedure 8, Graded Dose-response, pp. 14-19, Springer-Verlag, N.Y., 1981.

Compound	Percent Inhibition cGMP-PDE I (1 μM) [%]	Percent Inhibition cGMP-PDE I (10 μM) [%]	IC50 [nM]	Percent Inhibition cGMP-PDE I (0.1 μM) [%]	Percent Inhibition cGMP-PDE I (0.01 μM) [%]
O=c1nc(-c2ccncc2)nc2n(C3CCCC3)[nH]c(Cc3ccccc3)c1-2 [Example 15e, 1-Cyclopentyl-3-phenylmethyl-6-(4-pyridyl)-pyrazolo[3,4-d]pyrimidin-4-one]	38	43	–	–	–
Cc1nn(C2CC3CCC2C3)c2nc(-c3ccncc3)[nH]c(=O)c12 (stereo not shown) [Example 91]	–	–	850	–	–
Cc1nn(C2CCCC2)c2nc(C3CCNCC3)[nH]c(=O)c12 [Example 109, 1-Cyclopentyl-3-methyl-6-(4-piperidinyl)-pyrazolo[3,4-d]-pyrimidin-4-one monohydrochloride. 1/2 hydrate]	7	13	–	–	–
CCc1[nH]n(C2CCCC2)c2nc(-c3ccnc(N4CCOCC4)c3)nc(=O)c1-2 [Example 129c, 1-Cyclopentyl-3-ethyl-6-(2-(4-morpholinyl)-4-pyridyl)pyrazolo[3,4-d]pyrimidin-4-one]	64	–	–	35	–
CCc1nn(C2CCCC2)c2nc(-c3cc(C)nc(-n4ccnc4)c3)[nH]c(=O)c12 [Example 120, 1-Cyclopentyl-3-ethyl-6-[2-(1-imidazolyl)-6-methyl-4-pyridyl]pyrazolo[3,4-d]pyrimidin-4-one-1/4 hydrate]	60	–	–	16	–
Cc1nn(Cc2ccccc2Cl)c2nc(-c3ccncc3)[nH]c(=O)c12 [Example 82]	–	–	550	–	–
Cc1[nH]n(C2CCCC2)c2nc(-c3cccc4cccnc34)nc(=O)c1-2 [Example 12c, 1-Cyclopentyl-3-methyl-6-(8-quinolinyl)-pyrazolo-[3,4-d]pyrimidin-4-one]	–	–	690	–	–
CCc1[nH]n(C2CCCC2)c2nc(-c3ccc4nccn4c3)nc(=O)c1-2 [Example 16c, 1-Cyclopentyl-3-ethyl-6-(6-imidazo[1,2-a]pyridinyl)pyrazolo[3,4-d]pyrimidin-4-one]	69	–	780	35	–
Cc1[nH]n(Cc2cc(NS(=O)(=O)c3cccc4cccnc34)ccc2Cl)c2nc(-c3ccncc3)nc(=O)c1-2 [Example 108, 1-[2-Chloro-5-((8-quinolinylsulfonyl)amino)phenylmethyl]-3-methyl-6-(4-pyridyl)-pyrazolo[3,4-d]pyrimidin-4-one]	38	86	–	–	–
Cc1[nH]n(Cc2ccc(C(=O)O)cc2)c2nc(-c3ccncc3)nc(=O)c1-2 [Example 111, 1-(4-Carboxylphenylmethyl)-3-methyl-6-(4-pyridyl)-pyrazolo[3,4-d]pyrimidin-4-one]	0	24	–	–	–
CCCCCCCCn1nc(C)c2c(=O)[nH]c(-c3ccncc3)nc21 [Example 88]	32	–	–	–	–
N#Cc1[nH]n(C2CCCC2)c2nc(-c3ccncc3)nc(=O)c1-2 [Example 100, 1-Cyclopentyl-3-cyano-6-(4-pyridyl)-pyrazolo-[3,4-d]pyrimidin-4-one]	9	35	–	–	–
CCc1nn(C2CCCC2)c2nc(C3CCN(C)c4ccccc43)[nH]c(=O)c12 (stereo not shown) [Example 10b, 1-cyclopentyl-3-ethyl-6-(1,2,3,4-tetrahydro-4-N-methyl-quinolinyl)-pyrazolo-[3,4-d]pyrimidin-4-one]	62	–	–	24	–
CCc1[nH]n(C2CCCC2)c2nc(-c3cccc(C)n3)nc(=O)c1-2 [Example 2f, 1-cyclopentyl-3-ethyl-6-(6-methyl-2-pyridyl) -pyrazolo-[3,4-d]pyrimidin-4-one]	7	53	–	–	–
COc1cnccc1-c1nc2n(C3CCCC3)[nH]c(C(F)(F)F)c-2c(=O)n1 [Example 135, 1-Cyclopentyl-3-trifluoromethyl-6-(3-methoxy-4-pyridyl)pyrazolo[3,4-d]pyrimidin-4-one]	88	–	–	68	36
CC(=O)N1CCC(c2nc3n(C4CCCC4)[nH]c(C)c-3c(=O)n2)CC1 [Example 115, 1-Cyclopentyl-3-methyl-6-(1-acetyl-4-piperidinyl)pyrazolo[3,4-d]pyrimidin-4-one]	6	51	–	–	–
CCc1[nH]n(C2CCCC2)c2nc(C3CCNC4CCCCC43)nc(=O)c1-2 (stereo not shown) [Example 8, 1-Cyclopentyl-3-ethyl-6-(perhydro-4-quinolinyl)-pyrazolo[3,4-d]pyrimidin-4-one]	31	67	–	–	–

Compound	Percent Inhibition cGMP-PDE I (1 μM) [%]	Percent Inhibition cGMP-PDE I (10 μM) [%]	IC50 [nM]	Percent Inhibition cGMP-PDE I (0.1 μM) [%]	Percent Inhibition cGMP-PDE I (0.01 μM) [%]
Cc1nn(CCCCCCC(=O)O)c2nc(-c3ccncc3)[nH]c(=O)c12 [Example 79]	–	–	4700	–	–
Cc1nn(Cc2ccc(C#N)cc2)c2nc(-c3ccncc3)[nH]c(=O)c12 [Example 85]	–	42	–	–	–
Cc1nn(Cc2cccc(C#N)c2)c2nc(-c3ccncc3)[nH]c(=O)c12 [Example 86]	–	41	–	–	–
Cc1nn(C2CCCC2O)c2nc(-c3ccncc3)[nH]c(=O)c12 (stereo not shown) [Example 17e]	–	–	2300	–	–
CCc1[nH]n(C2CCCC2)c2nc(-c3ccnc(Cl)c3)nc(=O)c1-2 [Example 125b, 1-Cyclopentyl-3-ethyl-6-(2-chloro-4-pyridyl)pyrazolo[3,4-d]pyrimidin-4-one]	59	–	580	27	–
Cc1[nH]n(C2CCCC2)c2nc(-c3cc[nH]c(=O)c3)nc(=O)c1-2 [Example 126b, 1-Cyclopentyl-3-methyl-6-(2-oxo-4-pyridyl)pyrazolo[3,4-d]pyrimidin-4-one]	32	–	–	0	–
Cc1[nH]n(Cc2ccc([N+](=O)[O-])cc2)c2nc(-c3ccncc3)nc(=O)c1-2 [Example 105, 1-(4-Nitrophenylmethyl)-3-methyl-6-(4-pyridyl)pyrazolo[3,4-d]pyrimidin-4-one]	–	–	6700	–	–
CCc1[nH]n(C(C)(C)C)c2nc(-c3ccncc3OC)nc(=O)c1-2 [Example 136, 1-tert-Butyl-3-ethyl-6-(3-methoxy-4-pyridyl)pyrazolo[3,4-d]pyrimidin-4-one]	73	–	–	39	28
O=c1[nH]c(-c2ccncc2)nc2c1c(C(F)(F)F)nn2C1CCCC1 [Example 96]	–	–	670	–	–
CCc1[nH]n(C2CCCC2)c2nc(-c3ccnc4ccccc34)nc(=O)c1-2 [Example 7c, 1-Cyclopentyl-3-ethyl-6-(4-quinolinyl)-pyrazolo[3,4-d]pyrimidin-4-one]	–	–	190	–	–
Cc1nn(CCCCCCCC(=O)O)c2nc(-c3ccncc3)[nH]c(=O)c12 [Example 84]	–	–	610	–	–
CN(C)c1[nH]n(C2CCCC2)c2nc(-c3ccncc3)nc(=O)c1-2 [Example 20c, 1-Cyclopentyl-3-dimethylamino-6-(4-pyridyl) pyrazolo[3,4-d]pyrimidin-4-one]	36	70	–	–	–
CCc1[nH]n(C2CCCC2)c2nc(-c3ccncc3OC3CCC3)nc(=O)c1-2 [Example 130B, 1-Cyclopentyl-3-ethyl-6-(3-cyclobutyloxy-4-pyridyl)pyrazolo[3,4-d]pyrimidin-4-one]	–	–	–	–	91
CCc1[nH]n(C2CCCC2)c2nc(-c3ccnc(C)c3)nc(=O)c1-2 [Example 118, 1-Cyclopentyl-3-ethyl-6-(2-methyl-4-pyridyl)pyrazolo[3,4-d]pyrimidin-4-one]	61	–	660	22	–
Cc1[nH]n(Cc2ccc(C(N)=O)cc2)c2nc(-c3ccncc3)nc(=O)c1-2 [Example 110, 1-(4-Carbamoylphenylmethyl)-3-methyl-6-(4-pyridyl)pyrazolo[3,4-d]pyrimidin-4-one]	23	74	–	–	–
Cc1[nH]n(C)c2nc(-c3ccncc3)nc(=O)c1-2 [Example 103, 1,3-Dimethyl-6-(4-pyridyl)-pyrazolo-[3,4-d]pyrimidin-4-one]	0	19	–	–	–
